The test addresses T1, KCNH6 potassium channel (Homo sapiens, UniProt Q9H252).
T1 construct: human KCNH6 (WT cDNA) transfected in HEK293T cells; FLAG-tagged for pull-down
T1 sequence (Q9H252 1-958): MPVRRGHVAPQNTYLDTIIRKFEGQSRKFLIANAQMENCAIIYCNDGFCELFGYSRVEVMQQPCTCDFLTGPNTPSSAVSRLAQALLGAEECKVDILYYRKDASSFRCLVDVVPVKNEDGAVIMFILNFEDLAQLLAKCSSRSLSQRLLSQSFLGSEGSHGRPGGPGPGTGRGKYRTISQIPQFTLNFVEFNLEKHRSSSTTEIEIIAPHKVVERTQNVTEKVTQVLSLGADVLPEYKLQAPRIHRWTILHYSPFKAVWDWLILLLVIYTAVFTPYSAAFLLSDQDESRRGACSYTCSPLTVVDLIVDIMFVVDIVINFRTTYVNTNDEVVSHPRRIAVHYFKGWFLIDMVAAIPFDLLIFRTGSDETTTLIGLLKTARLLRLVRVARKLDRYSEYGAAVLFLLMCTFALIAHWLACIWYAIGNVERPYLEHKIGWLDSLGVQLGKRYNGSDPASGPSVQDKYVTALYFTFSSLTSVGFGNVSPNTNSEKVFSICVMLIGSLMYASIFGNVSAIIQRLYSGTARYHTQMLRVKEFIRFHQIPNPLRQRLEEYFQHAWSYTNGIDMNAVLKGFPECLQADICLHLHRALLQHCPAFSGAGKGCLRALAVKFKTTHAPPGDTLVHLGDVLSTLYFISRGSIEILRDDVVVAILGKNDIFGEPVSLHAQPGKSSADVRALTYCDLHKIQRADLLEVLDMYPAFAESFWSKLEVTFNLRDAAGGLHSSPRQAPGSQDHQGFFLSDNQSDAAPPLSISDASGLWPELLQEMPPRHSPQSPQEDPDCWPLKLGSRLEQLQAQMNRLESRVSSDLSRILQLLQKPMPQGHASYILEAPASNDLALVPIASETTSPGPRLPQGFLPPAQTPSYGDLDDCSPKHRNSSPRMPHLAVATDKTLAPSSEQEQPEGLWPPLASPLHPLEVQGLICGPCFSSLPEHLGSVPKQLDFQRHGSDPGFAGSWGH
As to the kind of experiment: whole-cell patch clamp of KCNH6-transfected HEK293T cells; affinity-bead pull-down from cell extract competed by free BBR. Format: cell-based.

As for `COc1ccc2cc3[n+](cc2c1OC)CCc1cc2c(cc1-3)OCO2` [BBR, berberine], the IC50 was found to be 1.01 ± 0.04 µM.
